Test results taken from ChEMBL document CHEMBL5029183 (J Med Chem, 2021).
Calls of active or inactive are those of the source.

Experiments:
Mus musculus [1] = assay: Antiallodynic activity in icv dosed Kunming mouse model of spared nerve injury-induced neuropathic pain assessed as increase in ipsilateral withdrawal threshold by von Frey test; format: functional, organism-based; conditions: dose 0.67-6.7 nmol
[2] = molecular target: Delta-type opioid receptor (Rattus norvegicus, UniProt P33533); assay: Displacement of [3H]DPDPE from DOR in Wistar rat brain membranes measured after 3 hrs by scintillation counting method; format: cell membranes, Membrane
Chain of Delta-type opioid receptor (P33533 whole entry): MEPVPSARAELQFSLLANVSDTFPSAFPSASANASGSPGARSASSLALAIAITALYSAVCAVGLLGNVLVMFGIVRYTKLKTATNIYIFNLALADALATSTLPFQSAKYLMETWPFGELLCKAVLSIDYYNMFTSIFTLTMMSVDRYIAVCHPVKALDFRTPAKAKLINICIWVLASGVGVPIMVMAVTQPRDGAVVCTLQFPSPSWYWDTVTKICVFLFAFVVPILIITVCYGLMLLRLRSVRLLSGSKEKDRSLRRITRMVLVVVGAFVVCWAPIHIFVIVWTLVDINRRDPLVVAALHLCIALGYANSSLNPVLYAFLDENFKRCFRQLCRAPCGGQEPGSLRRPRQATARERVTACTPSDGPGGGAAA

Mus musculus [3] = assay: Antiallodynic activity in icv dosed Kunming mouse model of spared nerve injury-induced neuropathic pain assessed as increase in paw withdrawal threshold measured upto 50 mins by von Frey test; format: functional, organism-based; conditions: dose 0.67-6.7 nmol, time min <=50
Mus musculus [4] = assay: Chronic antinociceptive tolerance in Kunming mouse assessed as maximum possible effect pretreated with compound followed by repeated compound addition at 20 nmol, icv once daily for 7 days and measured after 10 mins by radiant heat paw withdrawal test; format: functional; conditions: time 7 day
Mus musculus [5] = assay: Antinociceptive tolerance in Kunming mouse pretreated with compound for 3 hrs followed by challenge with second dose of compound at 20 nmol, icv and measured after 3 hrs by radiant heat paw withdrawal test; format: functional, organism-based; conditions: time 6.0 hrs
Mus musculus [6] = assay: Antinociceptive activity in Kunming mouse model assessed as increase in paw withdrawal latency at 10 micromol/kg, sc pretreated with icv dosed naloxone methiodide for 5 mins followed by compound addition by radiant heat paw withdrawal assay; format: functional, organism-based; conditions: dose 10.0 µmol/kg
Mus musculus [7] = assay: Antinociceptive activity in Kunming mouse model assessed as increase in paw withdrawal latency at 20 nmol, icv pretreated for 20 mins with NTI followed by compound addition and measured upto 10 mins by radiant heat paw withdrawal assay; format: functional, organism-based; conditions: time min <=10
Mus musculus [8] = assay: Antiallodynic activity in Kunming mouse model of spared nerve injury-induced neuropathic pain assessed as increase in paw withdrawal threshold at 10 micromol/kg, sc by von Frey test; format: functional, organism-based; conditions: dose 10.0 µmol/kg
[9] = Toxicity in Kunming mouse model assessed as conditioned place preference time at 10 micromol/kg, sc; conditions: in vivo, dose 10 µmol/kg
Mu-type opioid receptor [10] = molecular target: T1, Mu-type opioid receptor (Homo sapiens, UniProt P35372); assay: Agonist activity at mu-opioid receptor (unknown origin) expressed in HEK293 cells assessed as inhibition of forskolin-induced cAMP accumulation incubated for 15 mins by ELISA relative to control; format: functional, cell-based; conditions: filed as agonist
T1 sequence (P35372 whole entry): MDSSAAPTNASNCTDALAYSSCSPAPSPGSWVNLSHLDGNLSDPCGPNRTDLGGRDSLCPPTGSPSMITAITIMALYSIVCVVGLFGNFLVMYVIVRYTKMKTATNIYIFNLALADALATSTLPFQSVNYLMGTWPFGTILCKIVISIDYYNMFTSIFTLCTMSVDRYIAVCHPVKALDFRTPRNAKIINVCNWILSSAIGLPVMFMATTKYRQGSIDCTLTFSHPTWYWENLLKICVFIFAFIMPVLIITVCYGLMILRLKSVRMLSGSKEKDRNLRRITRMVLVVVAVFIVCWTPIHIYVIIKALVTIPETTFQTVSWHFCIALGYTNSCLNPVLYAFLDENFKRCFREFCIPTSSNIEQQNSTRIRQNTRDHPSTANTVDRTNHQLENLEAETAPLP

Rattus norvegicus = species: Rattus norvegicus; assay: Selectivity index, ratio of Ki for displacement of [3H]-U69593 from KOR in Wistar rat brain membranes to Ki for displacement of [3H]DAMGO from MOR in Wistar rat brain membranes; format: cell membranes
Mus musculus [11] = assay: Antinociceptive activity in Kunming mouse model assessed as increase in paw withdrawal latency at 10 micromol/kg, sc pretreated with icv dosed naloxone for 5 mins followed by compound addition by radiant heat paw withdrawal assay; format: functional, organism-based; conditions: dose 10.0 µmol/kg
Mus musculus [12] = assay: Antinociceptive activity in Kunming mouse model assessed as increase in paw withdrawal latency at 20 nmol, icv pretreated for 4 hrs with beta-FNA followed by compound addition and measured upto 10 mins by radiant heat paw withdrawal assay; format: functional, organism-based; conditions: time min <=10
Mu-type opioid receptor [13] = molecular target: T1, Mu-type opioid receptor; assay: Agonist activity at mu-opioid receptor (unknown origin) expressed in HEK293 cells assessed as inhibition of forskolin-induced cAMP accumulation incubated for 15 mins by ELISA; format: functional, cell-based
Mus musculus [14] = species: Mus musculus; assay: Antinociceptive tolerance in Kunming mouse pretreated with saline for 2 hrs followed by compound addition by radiant heat paw withdrawal test; format: functional
Vas deferens = assay: Inhibition of electric-field induced mouse vas deferens contraction; format: functional, tissue-based
Mus musculus [15] = assay: Antiallodynic activity in Kunming mouse model of CFA-induced inflammatory pain assessed as increase in ipsilateral withdrawal threshold at 0.67 to 6.7 nmol, icv measured at 10 to 50 mins by von Frey test; format: functional, organism-based; conditions: dose 0.67-6.7 nmol, time 10-50 min
Mus musculus [16] = assay: Chronic antinociceptive tolerance in Kunming mouse pretreated with compound followed by repeated compound addition at 20 nmol, icv once daily for 7 days and measured after 10 mins by radiant heat paw withdrawal test; format: functional, organism-based; conditions: time 7.0 day

Structure (SMILES)	Activity (Mus musculus [1])	Ki [2] [µM]	Activity (Mus musculus [3])	MPE (Mus musculus [4]) [%]	Activity (Mus musculus [5])	Activity (Mus musculus [6])	Activity (Mus musculus [7])	Activity (Mus musculus [8])	Time [9] [s]	Emax (Mu-type opioid receptor [10]) [%]	Ratio Ki (Rattus norvegicus)	Activity (Mus musculus [11])	Activity (Mus musculus [12])	EC50 (Mu-type opioid receptor [13]) [µM]	ED50 (Mus musculus [14]) [nmol]	IC50 (Vas deferens) [µM]	Activity (Mus musculus [15])	Activity (Mus musculus [16])
Cc1cc(O)cc(C)c1C[C@H](N)C(=O)N[C@H]1CSSC[C@@H](C(=O)NCC(=O)N[C@H](CCCNC(=N)N)C(=O)N[C@H](CCCNC(=N)N)C(=O)O)NC(=O)[C@H](Cc2ccc(Cl)cc2)NC(=O)[C@H](Cc2ccccc2)NC1=O	Dose-Dependent Effect	4.27	Dose-Dependent Effect	77.25	inactive	inactive	Active	Active	453	83.8	710	inactive	inactive	0.0143	2.3	0.0493	Active	
Cc1cc(O)cc(C)c1C[C@H](N)C(=O)N[C@H]1CSSC[C@@H](C(=O)NCC(=O)N[C@H](CCCNC(=N)N)C(=O)N[C@H](CCCNC(=N)N)C(=O)O)NC(=O)[C@H](Cc2ccc(Cl)cc2)NC(=O)[C@H](Cc2c[nH]c3ccccc23)NC1=O	Dose-Dependent Effect	2.09	Dose-Dependent Effect		inactive	inactive	Active	Active	453	87.3	548	inactive	inactive	0.0136	2.2	0.0475	Active	inactive
